Results taken from patent US7429571B2, “Therapeutic furopyrimidines and thienopyrimidines” (BioCryst Pharmaceuticals, Inc., priority 2004, dated 2008).

Tested on: not given
Conditions: not given

**Q.** For `OC[C@H]1O[C@@H](c2coc3c(N4CCC4)ncnc23)[C@H](O)[C@@H]1O`, which melting point is on record?
**A.** The melting point was 192 °C.

**Q.** For `CN(C)c1ncnc2c([C@@H]3O[C@H](CO)[C@@H](O)[C@H]3O)coc12`, which melting point is on record?
**A.** Its melting point is 210 °C.

**Q.** With `C[C@@]1(O)[C@H](O)[C@@H](CO)O[C@H]1c1coc2c(N(N)CCO)ncnc12` as the molecule, how does the melting point read?
**A.** Its melting point is 84 to 92 °C.

**Q.** With `CC(C)Nc1ncnc2c([C@@H]3O[C@H](CO)[C@@H](O)[C@H]3O)coc12` as the molecule, how does the melting point read?
**A.** Its melting point is 58 to 80 °C.

**Q.** For `CCCNc1ncnc2c([C@@H]3O[C@H](CO)[C@@H](O)[C@H]3O)coc12`, which melting point is on record?
**A.** Its melting point is 58 to 80 °C.

**Q.** With `CCNc1ncnc2c([C@@H]3O[C@H](CO)[C@@H](O)[C@H]3O)coc12` as the molecule, how does the melting point read?
**A.** The melting point was 76 to 88 °C.

**Q.** Which melting point does the source give for `C[C@@]1(O)[C@H](O)[C@@H](CO)O[C@H]1c1coc2c(=O)[nH]c(N)nc12` here?
**A.** Its melting point is 80 to 84 °C.

**Q.** With `COC(=O)C(NP(=O)(OC[C@H]1O[C@@H](c2coc3c(N)ncnc23)[C@](C)(O)[C@@H]1O)Oc1ccccc1)C(C)C` (stereo in doubt) as the molecule, how does the melting point read?
**A.** The melting point was 58 to 62 °C.

**Q.** With `OC[C@H]1O[C@@H](c2coc3c(NC4CC4)ncnc23)[C@H](O)[C@@H]1O` as the molecule, how does the melting point read?
**A.** The melting point was 88 to 100 °C.

**Q.** For `CNc1ncnc2c([C@@H]3O[C@H](CO)[C@@H](O)[C@H]3O)coc12`, which melting point is on record?
**A.** The melting point was 88 to 100 °C.

**Q.** Which melting point does the source give for `OC[C@H]1O[C@@H](c2coc3c(N4CCCC4)ncnc23)[C@H](O)[C@@H]1O` here?
**A.** The melting point was 198 °C.

**Q.** With `CN(N)c1ncnc2c([C@@H]3O[C@H](CO)[C@@H](O)[C@@]3(C)O)coc12` as the molecule, how does the melting point read?
**A.** The melting point was 70 to 84 °C.

Tested on: HCV
Conditions: patients, sole treatment; cited from earlier work

**Q.** With `NC(=O)c1ncn([C@@H]2O[C@H](CO)[C@@H](O)[C@H]2O)n1` [Ribavirin, 1-β-D-ribofuranosyl-1-1,2,4-triazole-3-carboxamide] as the molecule, how does the “effect on serum levels of HCV-RNA” value read?
**A.** The value was “does not lower serum levels of HCV-RNA”.

Same assay, conditions: ribavirin alone; cited from earlier work

**Q.** With `NC(=O)c1ncn([C@@H]2O[C@H](CO)[C@@H](O)[C@H]2O)n1` [Ribavirin, 1-β-D-ribofuranosyl-1-1,2,4-triazole-3-carboxamide] as the molecule, how does the “patients in whom serum amino transferase levels are reduced to normal” value read?
**A.** The value was 40%.
